Assay [1] concerns the target T1, PAR1 (Homo sapiens, UniProt P25116).
T1 construct: endogenous in cells; host or cells: platelets
T1 sequence (P25116 22-425): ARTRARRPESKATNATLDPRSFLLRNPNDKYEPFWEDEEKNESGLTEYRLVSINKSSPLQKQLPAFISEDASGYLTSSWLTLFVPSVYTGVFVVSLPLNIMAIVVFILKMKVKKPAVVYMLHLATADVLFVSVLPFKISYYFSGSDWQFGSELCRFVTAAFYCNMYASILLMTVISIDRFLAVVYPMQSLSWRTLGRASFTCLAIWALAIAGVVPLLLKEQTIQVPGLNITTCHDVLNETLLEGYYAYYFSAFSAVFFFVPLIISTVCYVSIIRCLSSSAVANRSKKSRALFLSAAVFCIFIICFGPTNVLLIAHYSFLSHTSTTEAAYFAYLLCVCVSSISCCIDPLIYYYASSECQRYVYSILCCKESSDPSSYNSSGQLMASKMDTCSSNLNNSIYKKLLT
As to the kind of experiment: Human platelet activation by PAR1 agonist peptide SFLLRN. The assay is classed as cell-based. The conditions noted are these: 10 μM compound, PAR1AP SFLLRN. The procedure:
Figure 5 (A) Off-target controls: % of vehicle control for γ-thrombin (100 nM), PAR4 component of α-thrombin (5 nM α-thrombin +1 μM vorapaxar), PAR4 agonist peptide 200 μM AYPGKF, 200 μM PAR1 agonist peptide SFLLRN, and GPVI agonist convulxin 3.16 nM.
Compounds were screened for inhibition activity against human PAR4 using 100 nM γ-thrombin or 200 μM PAR4-AP in a single-point assay (10 μM test compound). Dose–response curves were conducted for active compounds. Active compounds were also assessed at a single concentration of 10 μM against other agonists, including the PAR4 component of α-thrombin (5 nM α-thrombin +1 μM vorapaxar), the PAR1 agonist peptide (20 μM SFFLRN), and the GPVI receptor agonist convulxin (3 nM).

The target in assay [2] is T2, PAR4 (Homo sapiens, UniProt Q96RI0).
T2 sequence (Q96RI0 18-385): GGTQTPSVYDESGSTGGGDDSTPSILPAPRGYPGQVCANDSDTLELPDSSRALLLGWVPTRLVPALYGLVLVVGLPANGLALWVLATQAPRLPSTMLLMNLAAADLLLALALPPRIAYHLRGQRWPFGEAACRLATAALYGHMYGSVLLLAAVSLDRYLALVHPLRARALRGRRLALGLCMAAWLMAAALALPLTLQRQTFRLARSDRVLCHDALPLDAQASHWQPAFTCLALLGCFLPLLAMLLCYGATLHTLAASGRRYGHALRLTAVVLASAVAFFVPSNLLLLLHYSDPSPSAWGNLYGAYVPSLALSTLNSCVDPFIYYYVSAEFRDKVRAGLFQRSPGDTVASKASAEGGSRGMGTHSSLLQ
As to the kind of experiment: Human platelet activation by PAR4 agonist peptide (PAR4-AP, AYPGKF). The assay is classed as cell-based. Further details: endogenous in cells; host or cells: platelets. The settings on record: 10 μM compound, 200 μM AYPGKF. As for the experimental part:
To test the antagonistic effect of the compounds on PAR4, a flow cytometry assay of human platelets was employed. Each compound was screened at 10 μM in human platelets using flow cytometry for GPIIbIIIa activation (PAC1) and P-selectin (CD62p) expression as previously described.[4] Activation of GPIIbIIIa allows interaction with divalent fibrinogen or multivalent von Willebrand factor, leading to platelet aggregation.[41] PAR4 stimulation also triggers α-granule secretion containing P-selectin.[5] […] Platelets were treated with each test compound or vehicle control DMSO before activating with γ-thrombin (100 nM) or PAR4 agonist peptide mimetic (200 μM, “PAR4-AP” AYPGKF) for 30 min. γ-thrombin activates PAR4 but not PAR1.[42] […]
Activation of washed human platelets was monitored by flow cytometry for the detection of PAC1 (GPIIbIIIa activation) and CD62p (P-selectin expression) binding as previously described.[4] […] Platelets were collected, counted on a Z1 Coulter Particle Counter (Beckman Coulter, Brea, CA), and diluted in TBB to 1.5 × 10^7 platelets/mL. […] Data were collected on a three-laser BD LSRFortessa (Becton Dickinson) and analyzed with FlowJo software (FlowJo LLC, Ashland, OR). The mean fluorescence intensity (geometric) of PE and FITC was determined from 30,000 events after compensation correction. […]

This is an account of results in PMC11020070, “Discovery of Protease-Activated Receptor 4 (PAR4)-Tethered Ligand Antagonists Using Ultralarge Virtual Screening” (ACS Pharmacology & Translational Science, 2024).

“Also recorded” adds a separate entry of the source.

Take `Cc1nc(NC(=O)c2cc(-c3ccccc3)n(-c3ccccc3)n2)n[nH]1` [Compound 7]: in assay [1], the “inhibition of PAR1 agonist peptide activation” value is recorded as “did not inhibit”. In addition, in assay [2], the “inhibition of PAR4 agonist peptide activation” value is given as “not inhibiting; also recorded: did not inhibit”.
